From patent publication US8859584B2, “TRPV1 antagonists” (AbbVie Inc., priority 2011, dated 2014) come the findings set out here.

Test [1] concerns the target T1, human TRPV1 (Homo sapiens, UniProt Q8NER1).
T1 construct: expressed in transfected cells
Put plainly: Acid Activation Assay (pH 5.0, FLIPR intracellular Ca2+, recombinant HEK293 cells). To be noted: percentage of maximal pH 5.0-induced response remaining; HEK293 hTRPV1; max concentration 37.5 μM. Format: cell-based. The protocol:
(ii) Acid Activation Assay
Dulbecco's modified Eagle's medium (DMEM) with 4.5 mg/mL D-glucose, fetal bovine serum, L-glutamine, and 2-morpholinoethanesulfonic acid (MES) were purchased from Sigma-Aldrich Co. (St. Louis, Mo.). […] The FLIPR® Calcium 4 assay kit was purchased from Molecular Devices (Sunnyvale, Calif.).
(§1) Expression plasmids encoding the hTRPV1 cDNA were transfected into HEK293 cells using Lipofectamine®. Forty-eight hours after transfection, the neomycin-resistant cells were selected with growth medium containing 800 μg/mL Geneticin (Life Technologies, formerly Gibco BRL). Surviving individual colonies were isolated and screened for TRPV1 activity. Cells expressing recombinant TRPV1 were maintained at 37° C. in DMEM containing 4 mM L-glutamine, 300 μg/mL G418 (Calbiochem) and 10% fetal bovine serum under a humidified 5% CO2 atmosphere.
The functional activity of compounds at the TRPV1 receptor was determined by measurement of intracellular Ca^2+ levels ([Ca^2+]i) using the Fluorescence Imaging Plate Reader (FLIPR)TETRA®. […] Compound stocks, 10 mM, were prepared in DMSO, and diluted serially across a 384-well plate using a Bravo BenchCel workstation (Agilent Technologies, Santa Clara, Calif.). On the day prior to the experiment, the recombinant HEK293 cells expressing human TRPV1 (hTRPV1) were removed from tissue culture flasks and plated in growth medium into black-walled clear-bottom 384-well Biocoat™ poly-D-lysine assay plates (BD Biosciences, Bedford, Mass.) using a Multidrop® dispenser (ThermoScientific, Waltham, Mass.). […] The plated cells were incubated for 90-120 min in the dark at 25° C. The test compounds dissolved in DMSO were then added to the plates using an Agilent Bravo workstation (Agilent Technologies Inc., Santa Clara, Calif.). Three minutes later, a pH 5.0 solution was added to each well. Reagents were delivered at a rate of 40 μL/sec, and the final assay volume was 80 μL. Acidic pH solutions were prepared by titration of DPBS/MES with 1 N HCl. The intensity of the fluorescence was captured and digitally transferred to an interfaced PC. The maximum peak measured for the concentration range tested was used to calculate the corresponding peak increase in fluorescence over baseline (relative fluorescence units) which was expressed as the percentage (max % remain) of the maximal pH 5.0-induced response.

Test [2] concerns the target T1, human TRPV1. Put plainly: Capsaicin Activation Assay (FLIPR intracellular Ca2+, recombinant HEK293 cells). Format: cell-based. The following applies: recombinant HEK293 cells expressing hTRPV1; 50 nM capsaicin; read-out: human TRPV1 capsaicin IC50. As for the experimental part:
(i) Capsaicin Activation Assay
Dulbecco's modified Eagle medium (DMEM) (with 4.5 mg/mL glucose) and fetal bovine serum were obtained from Hyclone Laboratories, Inc. (Logan, Utah). Dulbecco's phosphate-buffered saline (DPBS) (with 1 mg/mL glucose and 3.6 mg/l Na pyruvate, without phenol red), L-glutamine, hygromycin B, and Lipofectamine® were obtained from Life Technologies (Grand Island, N.Y.). G418 sulfate was obtained from Calbiochem-Novabiochem Corp. (San Diego, Calif.). Capsaicin (8-methyl-N-vanillyl-6-nonenamide) was obtained from Sigma-Aldrich, Co. (St. Louis, Mo.). Fluo-4 AM (N-[4-[6-[(acetyloxy)-methoxy]-2,7-difluoro-3-oxo-3H-xanthen-9-yl]-2-[2-[2-[bis[2-[(acetyloxy)methoxy]-2-oxyethyl]amino]-5-methylphenoxy]ethoxy]phenyl]-N-[2-[(acetyloxy)methoxy]-2-oxyethyl]-glycine, (acetyloxy)methyl ester) was purchased from Molecular Probes (Eugene, Oreg.).
as §1
The functional activity of compounds at the TRPV1 receptor was determined by measurement of intracellular Ca^2+ levels ([Ca^2+]i) using the Fluorescence Imaging Plate Reader (FLIPR)TETRA®. All compounds were tested over a 12-point one-third-log concentration range. Compound stocks, 10 mM, were prepared in DMSO, and diluted serially across a 384-well plate using a Bravo BenchCel workstation (Agilent Technologies, Santa Clara, Calif.). A stock concentration of capsaicin (10 mM) was made in DMSO, and diluted in DPBS to a final concentration of 200 nM (4×). On the day prior to the experiment, the recombinant HEK293 cells expressing human TRPV1 (hTRPV1) were removed from tissue culture flasks and plated in growth medium into black-walled clear-bottom 384-well Biocoat™ poly-D-lysine assay plates (BD Biosciences, Bedford, Mass.) using a Multidrop® dispenser (ThermoScientific, Waltham, Mass.). […] The plated cells were incubated for 90-120 minutes in the dark at room temperature and then test compound was added to each well. Three minutes later, 200 nM capsaicin (4×) solution was added to each well in an amount sufficient to provide a final assay volume of 80 μL and capsaicin concentration of 50 nM. Fluorescence readings were made at 1 to 5 second intervals over the course of the experimental run. The peak increase in relative fluorescence units (minus baseline) was calculated, and expressed as a percentage of the 50 nM capsaicin (control) response.

Broadly, the IC50 is the point on the concentration scale where inhibition reaches its midpoint.

T1 sequence (Q8NER1 whole entry): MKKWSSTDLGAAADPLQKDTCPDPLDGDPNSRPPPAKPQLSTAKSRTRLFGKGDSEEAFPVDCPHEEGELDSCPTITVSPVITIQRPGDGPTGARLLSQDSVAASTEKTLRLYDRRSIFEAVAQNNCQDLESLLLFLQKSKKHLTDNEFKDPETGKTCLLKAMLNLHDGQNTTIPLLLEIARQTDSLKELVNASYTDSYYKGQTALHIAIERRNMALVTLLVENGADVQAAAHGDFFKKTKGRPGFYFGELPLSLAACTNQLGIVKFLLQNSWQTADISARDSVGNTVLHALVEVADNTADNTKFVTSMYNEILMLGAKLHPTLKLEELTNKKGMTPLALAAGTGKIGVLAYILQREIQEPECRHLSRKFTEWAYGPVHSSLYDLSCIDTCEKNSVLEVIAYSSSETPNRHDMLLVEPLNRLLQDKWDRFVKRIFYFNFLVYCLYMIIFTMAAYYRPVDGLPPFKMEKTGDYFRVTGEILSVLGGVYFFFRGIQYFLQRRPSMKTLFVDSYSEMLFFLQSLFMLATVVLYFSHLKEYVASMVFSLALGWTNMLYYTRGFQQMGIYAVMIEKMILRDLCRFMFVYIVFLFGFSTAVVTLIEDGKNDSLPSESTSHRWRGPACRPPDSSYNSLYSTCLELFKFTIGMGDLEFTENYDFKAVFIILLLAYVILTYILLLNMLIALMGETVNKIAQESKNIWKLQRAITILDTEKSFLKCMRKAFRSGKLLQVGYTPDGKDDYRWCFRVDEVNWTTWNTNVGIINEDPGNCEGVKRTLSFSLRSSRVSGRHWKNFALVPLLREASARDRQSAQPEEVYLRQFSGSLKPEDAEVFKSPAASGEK

For `O=C(Nc1cccc2c1C[C@@H](O)C2)N[C@@H]1CC(CF)(CF)Oc2cc(OC(F)(F)F)ccc21` [Example 76, 1-[(4R)-2,2-bis(fluoromethyl)-7-(trifluoromethoxy)-3,4-dihydro-2H-chromen-4-yl]-3-[(2S)-2-hydroxy-2,3-dihydro-1H-inden-4-yl]urea], at human TRPV1 [1], the “human TRPV1 H+ (max % remain)” value was 1%. Further, the 50% inhibitory concentration (IC50) on human TRPV1 [2] turned out to be 0.032 µM.

As for `O=C(Nc1ccc(F)c2c1C[C@H](O)C2)N[C@@H]1CC(CF)(CF)Oc2cc(OC(F)(F)F)ccc21` [Example 139, 1-[(4R)-2,2-bis(fluoromethyl)-7-(trifluoromethoxy)-3,4-dihydro-2H-chromen-4-yl]-3-[(2S)-7-fluoro-2-hydroxy-2,3-dihydro-1H-inden-4-yl]urea], the “human TRPV1 H+ (max % remain)” value at human TRPV1 [1] stood at 2%. Besides, the concentration for half-maximal inhibition (IC50) at human TRPV1 [2] turned out to be 0.37 µM.

Turning to `O=C(Nc1cccc2c1CC(O)C2)NC1c2ccccc2OCC1c1ccc(Cl)cc1` (centres unmarked) [Example 115, 1-[3-(4-chlorophenyl)-3,4-dihydro-2H-chromen-4-yl]-3-(2-hydroxy-2,3-dihydro-1H-inden-4-yl)urea], the “human TRPV1 H+ (max % remain)” value at human TRPV1 [1] was determined as 94%. Moreover, the IC50 on human TRPV1 [2] was determined as 1.1 µM.

In the case of `O=C(Nc1cccc2c1C[C@H](O)C2)N[C@H]1CC(CF)(CF)Oc2cc(Cl)ccc21` [Example 97, 1-[(4S)-7-chloro-2,2-bis(fluoromethyl)-3,4-dihydro-2H-chromen-4-yl]-3-[(2R)-2-hydroxy-2,3-dihydro-1H-inden-4-yl]urea], on human TRPV1 [1], the “human TRPV1 H+ (max % remain)” value was 58%. Also, the half-inhibitory concentration (IC50) on human TRPV1 [2] was 1.1 µM.

In the case of `CC(=O)Nc1nc2c(Oc3cc(-c4ccc(C(F)(F)F)cc4)ncn3)cccc2s1` [A, reference compound], the “human TRPV1 H+ (max % remain)” value on human TRPV1 [1] is reported as 10%. Moreover, the IC50 at human TRPV1 [2] was 0.02 µM.

`C[C@@]1(CF)C[C@@H](NC(=O)Nc2cccc3c2C[C@H](O)C3)c2ccc(C(F)(F)F)cc2O1` [Example 44, 1-[(2S,4R)-2-(fluoromethyl)-2-methyl-7-(trifluoromethyl)-3,4-dihydro-2H-chromen-4-yl]-3-[(2R)-2-hydroxy-2,3-dihydro-1H-inden-4-yl]urea]: at human TRPV1 [1], the “human TRPV1 H+ (max % remain)” value was 52%. For the same compound, the IC50 on human TRPV1 [2] is 0.042 µM.

As for `CC1(C)C[C@@H](NC(=O)Nc2ccc(F)c3c2C[C@@H](O)C3)c2ccc(F)c(Cl)c2O1` [Example 166, 1-[(4R)-8-chloro-7-fluoro-2,2-dimethyl-3,4-dihydro-2H-chromen-4-yl]-3-[(2R)-7-fluoro-2-hydroxy-2,3-dihydro-1H-inden-4-yl]urea], the “human TRPV1 H+ (max % remain)” value on human TRPV1 [1] came to 43%. The half-inhibitory concentration (IC50) at human TRPV1 [2] came out at 0.065 µM.

Turning to `CC1(C)C[C@@H](NC(=O)Nc2ccc(F)c3c2C[C@H](O)C3)c2cccc(C(F)(F)F)c2O1` [Example 135, 1-[(4R)-2,2-dimethyl-8-(trifluoromethyl)-3,4-dihydro-2H-chromen-4-yl]-3-[(2S)-7-fluoro-2-hydroxy-2,3-dihydro-1H-inden-4-yl]urea], at human TRPV1 [1], the “human TRPV1 H+ (max % remain)” value was determined as 3%. Besides, at human TRPV1 [2], the IC50 amounted to 0.042 µM.

`CC1(C)C[C@@H](NC(=O)Nc2cccc3c2C[C@@H](O)C3)c2ccc(Cl)cc2O1` [Example 85, 1-[(4R)-7-chloro-2,2-dimethyl-3,4-dihydro-2H-chromen-4-yl]-3-[(2S)-2-hydroxy-2,3-dihydro-1H-inden-4-yl]urea]: the “human TRPV1 H+ (max % remain)” value at human TRPV1 [1] is given as 12%. The 50% inhibitory concentration (IC50) on human TRPV1 [2] came out at 0.024 µM.

For the compound `O=C(Nc1cccc2c1C[C@H](O)C2)N[C@@H]1CC2(CCC2)Oc2cc(C(F)(F)F)ccc21` [Example 42, 1-[(2R)-2-hydroxy-2,3-dihydro-1H-inden-4-yl]-3-[(4R)-7-(trifluoromethyl)-3,4-dihydrospiro[chromene-2,1′-cyclobutan]-4-yl]urea], the “human TRPV1 H+ (max % remain)” value on human TRPV1 [1] worked out at 20%. The IC50 at human TRPV1 [2] is 0.054 µM.

In the case of `COc1ccc2c(c1)OCCC2NC(=O)Nc1cccc2c1CC(O)C2` (centres unmarked) [Example 107, 1-(2-hydroxy-2,3-dihydro-1H-inden-4-yl)-3-(7-methoxy-3,4-dihydro-2H-chromen-4-yl)urea], the “human TRPV1 H+ (max % remain)” value at human TRPV1 [1] came to 55%. Besides, the IC50 at human TRPV1 [2] is 2.2 µM.

As for `O=C(Nc1cccc2c1C[C@H](O)C2)N[C@@H]1CCOc2ccccc21` [Example 47, 1-[(4R)-3,4-dihydro-2H-chromen-4-yl]-3-[(2R)-2-hydroxy-2,3-dihydro-1H-inden-4-yl]urea], the “human TRPV1 H+ (max % remain)” value on human TRPV1 [1] is 81%. At human TRPV1 [2], the 50% inhibitory concentration (IC50) is 4.1 µM.

Regarding `CC1(CF)C[C@@H](NC(=O)Nc2cccc3c2C[C@H](O)C3)c2ccc(Cl)cc2O1` (stereo partly drawn) [Example 67, 1-[(4R)-7-chloro-2-(fluoromethyl)-2-methyl-3,4-dihydro-2H-chromen-4-yl]-3-[(2R)-2-hydroxy-2,3-dihydro-1H-inden-4-yl]urea], the “human TRPV1 H+ (max % remain)” value at human TRPV1 [1] is reported as 72%. Also, on human TRPV1 [2], the IC50 amounted to 0.017 µM.

As for `CC1(C)C[C@@H](NC(=O)Nc2cccc3c2C[C@H](O)C3)c2cccc(C(F)(F)F)c2O1` [Example 29, 1-[(4R)-2,2-dimethyl-8-(trifluoromethyl)-3,4-dihydro-2H-chromen-4-yl]-3-[(2R)-2-hydroxy-2,3-dihydro-1H-inden-4-yl]urea], the “human TRPV1 H+ (max % remain)” value at human TRPV1 [1] is reported as 72%. In addition, the IC50 at human TRPV1 [2] amounted to 0.015 µM.

Regarding `O=C(Nc1cccc2c1C[C@H](O)C2)N[C@@H]1CCOc2c1cccc2C(F)(F)F` [Example 18, 1-[(2R)-2-hydroxy-2,3-dihydro-1H-inden-4-yl]-3-[(4R)-8-(trifluoromethyl)-3,4-dihydro-2H-chromen-4-yl]urea], on human TRPV1 [1], the “human TRPV1 H+ (max % remain)” value is given as 58%. For the same compound, at human TRPV1 [2], the IC50 is 0.026 µM.

Turning to `O=C(Nc1cccc2c1C[C@@H](O)C2)N[C@@H]1CC(CF)(CF)Oc2ccc(F)cc21` [Example 78, 1-[(4R)-6-fluoro-2,2-bis(fluoromethyl)-3,4-dihydro-2H-chromen-4-yl]-3-[(2S)-2-hydroxy-2,3-dihydro-1H-inden-4-yl]urea], the “human TRPV1 H+ (max % remain)” value on human TRPV1 [1] was found to be 12%. In addition, the half-maximal inhibitory concentration (IC50) on human TRPV1 [2] turned out to be 1.4 µM.

Turning to `O=C(Nc1ccc(F)c2c1C[C@@H](O)C2)N[C@@H]1CC(CF)(CF)Oc2c(F)cccc21` [Example 170, 1-[(4R)-8-fluoro-2,2-bis(fluoromethyl)-3,4-dihydro-2H-chromen-4-yl]-3-[(2R)-7-fluoro-2-hydroxy-2,3-dihydro-1H-inden-4-yl]urea], at human TRPV1 [1], the “human TRPV1 H+ (max % remain)” value was 58%. The IC50 at human TRPV1 [2] was determined as 3.5 µM.

As to `Cc1c(F)ccc2c1OC(C)(C)C[C@H]2NC(=O)Nc1cccc2c1C[C@H](O)C2` [Example 62, 1-[(4R)-7-fluoro-2,2,8-trimethyl-3,4-dihydro-2H-chromen-4-yl]-3-[(2R)-2-hydroxy-2,3-dihydro-1H-inden-4-yl]urea], the “human TRPV1 H+ (max % remain)” value at human TRPV1 [1] amounted to 86%. Moreover, the 50% inhibitory concentration (IC50) on human TRPV1 [2] is 0.02 µM.

`O=C(Nc1ccc(F)c2c1C[C@H](O)C2)N[C@@H]1CC(CF)(CF)Oc2c(F)cc(F)cc21` [Example 142, 1-[(4R)-6,8-difluoro-2,2-bis(fluoromethyl)-3,4-dihydro-2H-chromen-4-yl]-3-[(2S)-7-fluoro-2-hydroxy-2,3-dihydro-1H-inden-4-yl]urea]: the “human TRPV1 H+ (max % remain)” value on human TRPV1 [1] was found to be 4%. In addition, the IC50 on human TRPV1 [2] amounted to 4 µM.
